Data set [1] relates to MDA-MB-231 (LM1) xenograft mice. The format is in vivo. The following applies: for anticancer effect: tail vein 5 times at 3-day intervals. How it is done:
The anticancer effect of ACP52CGK was analyzed in MDA-MB-231 (LM1) xenograft mice in the same manner as in the Hep3B xenograft mouse model experiments.

Data set [2] can be described thus: In vivo half-life by live imaging of Cy5-labeled peptide fluorescence in the mouse body. The following applies: whole body (mouse body, live imaging), intravenous.
Method: To analyze the in vivo half-life of ACP52CGK, Cy5-labeled ACP52CGK was injected into the tail vein of the mouse, and then the fluorescence intensity remaining in the mouse body was measured over time by live imaging process.
The nature of data set [3]: ELISA for antibody formation in sera of injected rabbits (immunogenicity). The note with it: rabbit, in vivo. From the text:
To verify this, immunogenicity of ACP52CG and ACP52CK was directly tested in the process of deriving the final new drug candidate. Since the final candidate material might be a C-16 palmitoyl acid-conjugated ACP52C peptide, which is not different with ACP52CG and ACP52CK in terms of chemical composition, it was decided to analyze whether antibodies were formed on ACP52CG and ACP52CK. […] Therefore, it was concluded that the final candidate material (ACP52CGK) would also not show immunogenicity in the human body (FIG. 21).
For orientation: In an ELISA, binding on a coated surface is turned into a signal by an enzyme label.

Data set [4] in a line: Repeated toxicity test of ACP52CGK, 28 days, female and male mice. Format: in vivo, mouse. The note with it: 100 mg/kg. The method, then: A repeated toxicity test for the in vivo administration of ACP52CGK was conducted using female and male mice. […] As a full-scale experiment, after intravenous infusion of ACP52CGK for 28 days at 3-day intervals into the solvent group and high-dose group (100 mg/Kg) of 6 males and females each, the weight change, drinking water intake, and main histological analysis of organs, organ weight, hematological tests and blood biochemical tests were analyzed.

For data set [5], the system named is various cancer cell lines. The experiment in a line: In vitro anticancer effect of C16 fatty acid-binding peptides in various cancer cells. Format: cell-based. The note with it: for GI50 values compared with control (ACP52C): 48 hours after treatment; for cancer cell-specific cell death: compared with control ACP52C.
Method: The anticancer effect of the CP2c-targeting peptide-fatty acid conjugate synthesized in Preparation Example 2 was analyzed in various cancer cells.
Data set [6] concerns cells primary cultured from PDX (patient derived xenograft) tumor tissue. The data set can be described thus: Efficacy in cells primary cultured from PDX tumor tissue. Format: cell-based.
Another data set relates to Hep3B xenograft mice. Format: in vivo. The method, then: To analyze the anticancer efficacy of the CP2c target peptide-fatty acid conjugates synthesized in Preparation Example 2 in animal models, ACP52CG and ACP52CK were injected into the Hep3B xenograft mice via tail vein 5 times at 3-day intervals.
ACP52CGK was injected into the Hep3B xenograft mice via tail vein at 3 different concentrations (1.39, 2.77, or 5.54 mg/kg) 5 times at 3-day intervals. The tumor volume was measured at every three days after drug injection. The tumor and major tissues were excised from the mice sacrificed on the 24th day after the tumor cell injection. The tumor was weighed and fixed with 4% formaldehyde together with major organs. After making tissue slides through paraffin sections, hematoxylin/eosin staining was performed. The collected blood samples were subjected to basic CBC analysis using a Coulter LH 750 hematology analyzer. The acquired data were statistically processed using an Excel program.
ACP52CGK was injected into Hep3B xenograft mice via tail vein 5 times at intervals of 5 days at 3 different concentrations (1.39, 2.77, 5.54 mg/kg), and the anticancer effect was evaluated in the same manner as described above. […] As a result of a comprehensive analysis of all the results, 2.77 mg/kg was the optimal concentration.

Another data set relates to normal cell line. The experiment in a line: Cell growth analysis in normal cell line. Format: cell-based. The text has this: FIGS. 10a to 10g illustrate cell growth analysis results dependent upon treatment with ACP52CGK (=γC16-ACP52 cm) in normal cell lines (BEAS2B and hMSC) and cancer cell lines (Hep3B, Hs746T, Caov-3, MDA-MB-231, U343, HCT116, PANC1, PC3, A549, and THP-1).

The test system of data set [7] is liver cancer induced by DEN treatment. The experiment in a line: Liver cancer mouse model induced by DEN treatment. The format is in vivo. The note with it: for efficacy: mice 15 weeks after DEN treatment. How it is done: In addition, […] (7 to 8 mice/group), such as a control group (mock) treated with only a vehicle, a sorafenib group (an approved drug for liver cancer treatment), and an ACP52CG-GFLGE (SEQ ID NO: 16) (ACP52CK) group. The drug was injected through the tail vein a total of 12 times at a concentration of 5 mg/kg at 3-day intervals.

The subject of another data set is caspase2. The experiment in a line: Immunoblot of MDM2p90 and MDM2p60 after caspase2 inhibitor treatment. The format is cell-based. The note with it: lung cancer cells. How it is done: Meanwhile, when a caspase2 inhibitor (AC-VDVAD (SEQ ID NO: 11)-CHO) was treated to identify a phenomenon that occurs due to the high activity of caspase2 specifically in lung cancer cells, it was found by immunoblot that the protein amount of MDM2p90 increased, while the protein amount of MDM2p60 decreased according to the treatment with the Caspase2 inhibitor. Therefore, we concluded that the MDM2p60 form, which is overexpressed in lung cancer cells, is the result of cleavage of MDM2p90 by caspase2. […] As a result, efficacy was observed around GI50˜1 μM in the group treated with the combination of the caspase 2 inhibitor and ACP52C (FIGS. 34a to 34d, FIG. 35).
(In general: A western blot detects proteins with antibodies after separation by electrophoresis.)

[8] abbreviates: tail vein 5 times at 3-day intervals.

*1 amine or outer side, *2 acyl side, *3 side chain or, on linkers, in order; H or OH if unused. Where a SMILES comes first, the peptide text is derived from it. Bridges are numbered along the chain shown (N, C = ends). Roman numbers before positions name the chains, in order. Side-chain parts run from the residue outwards. The star is where a group is joined. γGlu = O=C(O)[C@H](CCC(=O)[*:2])N[*:1]; Palmitoyl = CCCCCCCCCCCCCCCC(=O)*

For orientation: half-life means the time needed for the level to fall by half in the phase considered. The low end stands for fast loss, the high end for slow loss.

Regarding `CCCCCCCCCCCCCCCC(=O)N[C@@H](CCC(=O)NCCCC[C@H](NC(=O)CNC(=O)CNC(=O)[C@@H]1CCCN1C(=O)[C@H](CCCNC(=N)N)NC(=O)[C@H](CCC(N)=O)NC(=O)[C@@H]1CCCN1C(=O)[C@H](Cc1ccc(O)cc1)NC(=O)[C@H](CC(N)=O)NC(C)=O)C(=O)NCC(=O)NCC(=O)N[C@@H](CS)C(=O)N[C@@H](CCCNC(=N)N)C(=O)NCC(=O)N[C@@H](CC(=O)O)C(=O)N[C@@H](CCCCN)C(=O)NCC(=O)N1CCC[C@H]1C(=O)N[C@@H](CC(=O)O)C(=O)N[C@@H](CS)C(N)=O)C(=O)O` [ACP52CGK] (Ac-NYPQRPGGK([γGlu-Palmitoyl])GGCRGDKGPDC-NH2), the “tumor suppression and metastasis inhibition effects” value in data set [1] (1.39, 2.77, or 5.54 mg/kg, 3-day and 5-day intervals) was “superior to those of the sorafenib and ACP52C-treated groups”. In addition, in data set [1] (mouse, in vivo), the optimal concentration is 2.77 mg/kg. The compound also showed a half-life in data set [2] of around 20.2 h. Also, the “immune response of sera from rabbits injected with ACP52CG and ACP52CK three times (ELISA)” value (from here on “immune response of sera”) in data set [3] was “did not induce immune responses”. Moreover, the “Relative organ weight, Kidney” value in data set [4] (female mice) came out at 1.34 ± 0.06%. Besides, in [4] (male mice), the “Relative organ weight, Kidney” value was found to be 1.50 ± 0.08%. In data set [4] (mouse, in vivo), the “Absolute organ weight, Epididymis” value came to 0.0482 ± 0.0127 g; the “Absolute organ weight, Ovary” value stood at 0.0059 ± 0.0012 g; the “Absolute organ weight, Testis” value is reported as 0.1693 ± 0.0169 g; the “Absolute organ weight, Uterus” value was found to be 0.0638 ± 0.0227 g. Further, in data set [4] (mouse, in vivo), the “Relative organ weight, Epididymis” value turned out to be 0.24 ± 0.07%; the “Relative organ weight, Ovary” value worked out at 0.0326 ± 0.0054%; the “Relative organ weight, Testis” value was determined as 0.83 ± 0.08%; the “Relative organ weight, Uterus” value is listed as 0.35 ± 0.12%. Also, in data set [5], the “GI50 values compared with control (ACP52C)” value is “like or more efficient than that of the control” and the “cancer cell-specific cell death” value is “induced cancer cell-specific cell death similarly to the control group”. Further, the “sensitivity across PDX generations” value in data set [6] (cells derived from the same origin, each generation) is listed as “not significantly different”. Further, the resistance entry in [6] (primarily cultured cells from some PDX tumor tissues) is reported as “showed resistance”. Also, in the data set with Hep3B xenograft mice (1.39, 2.77, 5.54 mg/kg, tail vein 5 times at intervals of 5 days), the “tumor inhibition and metastasis inhibition effects” value was “tumor inhibition and metastasis inhibition effects superior to the sorafenib and ACP52C treatment groups”. The “tumor metastasis inhibition effect (tumor area metastasized to the lung)” value in the data set with Hep3B xenograft mice (1.39, 2.77, or 5.54 mg/kg, 5 times at 3-day intervals) is reported as “superior to ACP52C in the tumor metastasis inhibition effect”. The tumor suppressive effect entry in the data set on Hep3B xenograft mice (1.39, 2.77, or 5.54 mg/kg, tail vein 5 times at 3-day intervals) is listed as “tumor suppressive effect similar to that of ACP52C”. Moreover, in the data set on Hep3B xenograft mice (comprehensive analysis of 3-day and 5-day interval results), the optimal concentration is 2.77 mg/kg. The “effect on normal cells” value with normal cell line was “no significant effect on normal cells”.

Take `CCCCCCCCCCCCCCCC(=O)N[C@@H](CCC(=O)O)C(=O)NCCCC[C@H](NC(C)=O)C(=O)NCC(=O)NCC(=O)N[C@@H](CC(N)=O)C(=O)N[C@@H](Cc1ccc(O)cc1)C(=O)N1CCC[C@H]1C(=O)N[C@@H](CCC(N)=O)C(=O)N[C@@H](CCCNC(=N)N)C(=O)N1CCC[C@H]1C(=O)N[C@@H](CS)C(=O)N[C@@H](CCCNC(=N)N)C(=O)NCC(=O)N[C@@H](CC(=O)O)C(=O)N[C@@H](CCCCN)C(=O)NCC(=O)N1CCC[C@H]1C(=O)N[C@@H](CC(=O)O)C(=O)N[C@@H](CS)C(N)=O` [ACP52CG] (Ac-K([Glu-Palmitoyl])GGNYPQRPCRGDKGPDC-NH2): the anticancer effect result in data set [1] is “showed tumor regression efficacy, but the anticancer effect was not significant”. Besides, the “immune response of sera” value in [3] is given as “did not induce immune responses”. In [5], the “GI50 values compared with control (ACP52C)” value is reported as “like or more efficient than that of the control” and the “cancer cell-specific cell death” value was “induced cancer cell-specific cell death similarly to the control group”. For the same compound, the efficacy entry in data set [7] is on record as “superior to another control, FQI1, but did not show any superior efficacy compared to ACP52C”. Besides, in the data set with Hep3B xenograft mice (setting [8]), the anticancer efficacy entry is reported as “showed similar efficacy to sorafenib, but their efficacy was inferior to that of ACP52C”.

`CCCCCCCCCCCCCCCC(=O)NCC(=O)N[C@@H](Cc1ccccc1)C(=O)N[C@@H](CC(C)C)C(=O)NCC(=O)N[C@@H](CCC(=O)O)C(=O)NCCCC[C@H](NC(C)=O)C(=O)NCC(=O)NCC(=O)N[C@@H](CC(N)=O)C(=O)N[C@@H](Cc1ccc(O)cc1)C(=O)N1CCC[C@H]1C(=O)N[C@@H](CCC(N)=O)C(=O)N[C@@H](CCCNC(=N)N)C(=O)N1CCC[C@H]1C(=O)N[C@@H](CS)C(=O)N[C@@H](CCCNC(=N)N)C(=O)NCC(=O)N[C@@H](CC(=O)O)C(=O)N[C@@H](CCCCN)C(=O)NCC(=O)N1CCC[C@H]1C(=O)N[C@@H](CC(=O)O)C(=O)N[C@@H](CS)C(N)=O` [ACP52CK] (I: Ac-KGGNYPQRPCRGDKGPDC-NH2 / II: Palmitoyl-GFLGE; amide I:1-II:C): the anticancer effect result in [1] is recorded as “showed tumor regression efficacy, but the anticancer effect was not significant”. The “immune response of sera” value in data set [3] is on record as “did not induce immune responses”. Further, in data set [5], the “GI50 values compared with control (ACP52C)” value is “like or more efficient than that of the control” and the “cancer cell-specific cell death” value is “induced cancer cell-specific cell death similarly to the control group”. In data set [7], the efficacy result was “superior to another control, FQI1, but did not show any superior efficacy compared to ACP52C”. The anticancer efficacy entry with Hep3B xenograft mice (setting [8]) is reported as “showed similar efficacy to sorafenib, but their efficacy was inferior to that of ACP52C”.

Consider `CNC(=O)c1cc(Oc2ccc(NC(=O)Nc3ccc(Cl)c(C(F)(F)F)c3)cc2)ccn1` [sorafenib, reference compound], for which the “anticancer effect compared to the control group” value in data set [7] (mice 22 weeks after DEN treatment, 5 mg/kg tail vein 12 times at 3-day intervals) is “significant anticancer effect (p=0.04)”.

Regarding “AC-VDVAD (SEQ ID NO: 11)-CHO (Ac-VDVAD-aldehyde) [caspase2 inhibitor]”, in the data set with caspase2, the “protein amount of MDM2p60” value is on record as “decreased” and the “protein amount of MDM2p90” value is listed as “increased”.

The values above are taken from patent publication US12605453B2, “CP2C-targeting peptide-based anticancer agent” (Industry-University Cooperation Foundation Hanyang …, priority 2019, dated 2026).
